According to the supplement of paper PMC4862054:

Experiments:
Experiment in all cases: normalised response (% of control), CellTiter-Glo; higher = more viable cells (100 = DMSO, 0 = benzethonium chloride kill control)
Conditions in all cases: incubation time: 72 h
[1] = system: MDA-MB-468
Method in brief: (§1)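 Normalised signals at single concentrations make up the values. They come from breast cancer cell lines seeded (20 µl suspension) into 384-well plates with compound at 5 concentrations in 10-fold steps over a compound-specific 10,000-fold range, incubated 72 h, and read for CellTox Green fluorescence then CellTiter-Glo luminescence. Each plate was normalised to 0.1 % DMSO (100) and a positive kill control (0).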

[2] = system: HCC1143
Method in brief: as §1

[3] = system: MFM-223
Method in brief: as §1

[4] = system: CAL-51
Method in brief: as §1

[5] = system: BT-474
Method in brief: as §1

[6] = system: MCF-10A
Method in brief: as §1

[7] = system: SK-BR-3
Method in brief: as §1

[8] = system: CAL-148
Method in brief: as §1

[9] = system: CAL-120
Method in brief: as §1

[10] = system: HCC1599
Method in brief: as §1

[11] = system: BT-549
Method in brief: as §1

[12] = system: CAL-85-1
Method in brief: as §1

[13] = system: DU-4475
Method in brief: as §1

[14] = system: HDQ-P1
Method in brief: as §1

[15] = system: MDA-MB-436
Method in brief: as §1

[16] = system: HCC1937
Method in brief: as §1

[17] = system: Hs578T
Method in brief: as §1

[18] = system: MDA-MB-453
Method in brief: as §1

[19] = system: MDA-MB-231
Method in brief: as §1

Row | Compound | normalised response [1] | normalised response [2] | normalised response [3] | normalised response [4] | normalised response [5] | normalised response [6] | normalised response [7] | normalised response [8] | normalised response [9] | normalised response [10] | normalised response [11] | normalised response [12] | normalised response [13] | normalised response [14] | normalised response [15] | normalised response [16] | normalised response [17] | normalised response [18] | normalised response [19]
1 | C=CCc1cccc(/C=N/NC(=O)CN2CCN(Cc3ccccc3)CC2)c1O [PAC-1] (10 nM) | 111% | 100% | 110% | 108% | 98.4% | 112% | 107% | 107% | 94.6% | 112% | 97.7% | 100% | 106% | 98.9% | 98.3% | 103% | 103% | 104% | 100%
2 | Nc1nc2[nH]cc(CCc3ccc(C(=O)N[C@@H](CCC(=O)O)C(=O)O)cc3)c2c(=O)[nH]1 [Pemetrexed] (1 nM) | 99% | 91.6% | 92.6% | 90% | 97.8% | 95.7% | 101% | 98.9% | 106% | 85.1% | 105% | 94.2% | 95.1% | 105% | 98.7% | 96.8% | 101% | 101% | 97.4%
3 | Nc1nc2[nH]cc(CCc3ccc(C(=O)N[C@@H](CCC(=O)O)C(=O)O)cc3)c2c(=O)[nH]1 [Pemetrexed] (10 nM) | 93.9% | 106% | 94.9% | 73.3% | 98.2% | 100% | 97.1% | 98% | 105% | 88.7% | 108% | 97.5% | 95.3% | 99.5% | 91.3% | 104% | 98.5% | 92.8% | 96.9%
4 | CC[C@H](C)C(=O)O[C@H]1C[C@H](O)C=C2C=C[C@H](C)[C@H](CC[C@@H](O)C[C@@H](O)CC(=O)O)[C@H]21 [Pravastatin] (1 nM) | 99.9% | 95.1% | 93.1% | 104% | 99.6% | 96% | 94.2% | 87.5% | 101% | 117% | 102% | 92.6% | 95.5% | 103% | 99.6% | 97.6% | 101% | 99.8% | 102%
5 | CC[C@H](C)C(=O)O[C@H]1C[C@H](O)C=C2C=C[C@H](C)[C@H](CC[C@@H](O)C[C@@H](O)CC(=O)O)[C@H]21 [Pravastatin] (10 nM) | 104% | 97.3% | 92.3% | 128% | 98.1% | 102% | 95.6% | 98.7% | 105% | 88.5% | 92.2% | 104% | 91.5% | 106% | 97.7% | 95.4% | 100% | 85.2% | 99.1%
6 | Cc1cnc(NC(=O)Nc2cc(Br)c(C)cc2OC[C@@H]2CNCCO2)cn1 [Rabusertib] (0.1 nM) | 101% | 103% | 103% | 108% | 109% | 109% | 111% | 112% | 107% | 88.5% | 103% | 107% | 109% | 102% | 106% | 101% | 102% | 114% | 104%
7 | CNC(=O)c1cc(Oc2ccc(NC(=O)Nc3cc(C(C)(C)C)nn3-c3ccc4ncccc4c3)c(F)c2)ccn1 [Rebastinib] (0.1 nM) | 97.1% | 98.3% | 101% | 122% | 99.5% | 109% | 113% | 104% | 97.7% | 105% | 95.8% | 96.6% | 101% | 105% | 97.9% | 107% | 103% | 102% | 101%
8 | CNC(=O)c1cc(Oc2ccc(NC(=O)Nc3cc(C(C)(C)C)nn3-c3ccc4ncccc4c3)c(F)c2)ccn1 [Rebastinib] (1 nM) | 96.3% | 104% | 100% | 123% | 98.8% | 109% | 104% | 109% | 99.1% | 102% | 93.8% | 99.5% | 98.8% | 100% | 99.5% | 97.6% | 103% | 93.5% | 94.7%
9 | COc1cc([C@@H]2c3cc4c(cc3[C@@H](O[C@@H]3O[C@@H]5CO[C@@H](c6cccs6)O[C@H]5[C@H](O)[C@H]3O)[C@H]3COC(=O)[C@H]23)OCO4)cc(OC)c1O [Teniposide] (1 nM) | 95.9% | 100% | 96% | 125% | 99.3% | 106% | 101% | 102% | 95.8% | 107% | 103% | 99% | 99% | 96.4% | 96.9% | 106% | 106% | 91.8% | 94.1%
10 | COc1cc2nccc(Oc3ccc(NC(=O)Nc4cc(C)on4)c(Cl)c3)c2cc1OC [Tivozanib] (1 nM) | 97.3% | 94.2% | 88.6% | 108% | 91.4% | 79% | 91.2% | 94.3% | 95.7% | 88.6% | 102% | 93% | 97.5% | 93.5% | 83.2% | 92.7% | 91% | 94.7% | 98.9%
